Measurements from ChEMBL document CHEMBL1126737, “Toward a novel metal-based chemotherapy against tropical diseases. 1. Enhancement of the efficacy of clotrimazole against Trypanosoma cruzi by complexation to ruthenium in RuCl2(clotrimazole)2” (J Med Chem, 1993).

Assays:
[1] = Effective concentration that inhibits growth of Trypanosoma cruzi by 50% was reported; assay type: functional
[2] = tested on: Vero; assay: Effective concentration to inhibit the proliferation of amastigote form of the parasite grown on mammalian (Vero) cells; assay type: functional, cell-based, Chlorocebus sabaeus
[3] = tested on: Trypanosoma cruzi; assay: Inhibition of the proliferation of epimastigote form of Trypanosoma cruzi was determined at 10 e-5 M; assay type: functional

Row | Compound | EC50 [1] [µM] | EC50 [2] [µM] | inhibition [3] [%]
1 | Clc1ccccc1C(c1ccccc1)(c1ccccc1)n1ccnc1 [CLOTRIMAZOLE] | 3 | – | –
2 | RuCl2(clotrimazole)2 [listing 1 of 2 here] | 0.1 | 0.005 | –
3 | RuCl2(clotrimazole)2 [listing 2 of 2 here] | – | – | 90
